# Test results: ChEMBL document CHEMBL1201862, “PubChem BioAssay data set” (2004)
# Activity calls are given as the source filed them.
# Legend:
# [1] = target: Sphingosine 1-phosphate receptor 1 (Homo sapiens, UniProt P21453); experiment: Fluorescence-based counterscreen assay for S1P4 agonists: Cell-based dose response high throughput screening assay to identify agonists of the Sphingosine 1-Phosphate Receptor 1 (S1P1). [Related pubchem assays (depositor defined):AID1509, AID1523, AID1801, AID463107, AID463118, AID463119, AID463122, AID463123, AID463129, AID463225, AID504400, AID504460]; type: functional
# Sequence of Sphingosine 1-phosphate receptor 1 (P21453 whole entry): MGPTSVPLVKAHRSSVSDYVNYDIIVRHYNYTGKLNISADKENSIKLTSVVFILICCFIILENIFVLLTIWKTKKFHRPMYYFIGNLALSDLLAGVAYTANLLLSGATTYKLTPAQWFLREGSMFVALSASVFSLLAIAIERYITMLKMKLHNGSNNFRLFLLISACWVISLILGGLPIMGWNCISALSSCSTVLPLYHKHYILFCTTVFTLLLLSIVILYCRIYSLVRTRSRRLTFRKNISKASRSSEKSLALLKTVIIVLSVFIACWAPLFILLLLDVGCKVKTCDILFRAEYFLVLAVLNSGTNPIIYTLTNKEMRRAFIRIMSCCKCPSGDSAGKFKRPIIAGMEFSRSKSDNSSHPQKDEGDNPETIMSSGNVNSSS
# [2] = target: Sphingosine 1-phosphate receptor 4 (Homo sapiens, UniProt O95977); experiment: Fluorescence dose response cell-based high throughput screening assay for agonists of the Sphingosine 1-Phosphate Receptor 4 (S1P4). [Related pubchem assays: 1509 (Primary screen.), 1523 (Confirmation screen in triplicates.)]; type: functional
# Sequence of Sphingosine 1-phosphate receptor 4 (O95977 whole entry): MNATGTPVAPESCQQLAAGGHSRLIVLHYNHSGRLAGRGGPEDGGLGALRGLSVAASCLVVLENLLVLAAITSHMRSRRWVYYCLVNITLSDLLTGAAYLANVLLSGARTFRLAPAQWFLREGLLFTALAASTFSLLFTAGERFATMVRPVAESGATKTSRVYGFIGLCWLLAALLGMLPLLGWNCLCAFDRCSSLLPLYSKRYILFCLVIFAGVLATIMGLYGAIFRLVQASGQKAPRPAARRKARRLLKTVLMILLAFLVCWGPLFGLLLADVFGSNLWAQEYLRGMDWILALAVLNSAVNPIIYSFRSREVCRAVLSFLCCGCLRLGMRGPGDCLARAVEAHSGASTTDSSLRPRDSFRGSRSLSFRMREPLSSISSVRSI
# [3] = target: G-protein coupled receptor 55 (Homo sapiens, UniProt Q9Y2T6); experiment: GPR55 antagonists blocking LPI-driven arrestin recruitment, primary screen, imaging, U2OS, beta-arrestin-GFP, LPI agonist (AID 2013); type: functional;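 also: antagonist potency measured as reduced agonist-driven arrestin aggregation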
# Sequence of G-protein coupled receptor 55 (Q9Y2T6 whole entry): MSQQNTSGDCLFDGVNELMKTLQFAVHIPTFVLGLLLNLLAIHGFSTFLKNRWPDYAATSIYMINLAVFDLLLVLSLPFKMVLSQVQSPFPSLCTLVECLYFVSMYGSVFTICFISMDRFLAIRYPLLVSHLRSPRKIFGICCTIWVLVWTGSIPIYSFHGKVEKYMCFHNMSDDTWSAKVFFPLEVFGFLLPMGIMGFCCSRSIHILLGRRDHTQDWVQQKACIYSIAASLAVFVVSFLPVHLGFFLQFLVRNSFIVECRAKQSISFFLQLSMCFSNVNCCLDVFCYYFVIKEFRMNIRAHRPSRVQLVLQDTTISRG
# [4] = target: T1, Cannabinoid receptor 1 (Homo sapiens, UniProt P21554); experiment: SAR analysis of agonists of the Cannabinoid Receptor 1 using an Image-Based Assay - Set 2. [Related pubchem assays (depositor defined):AID2013, AID2026]; type: functional
# T1 sequence (P21554 whole entry): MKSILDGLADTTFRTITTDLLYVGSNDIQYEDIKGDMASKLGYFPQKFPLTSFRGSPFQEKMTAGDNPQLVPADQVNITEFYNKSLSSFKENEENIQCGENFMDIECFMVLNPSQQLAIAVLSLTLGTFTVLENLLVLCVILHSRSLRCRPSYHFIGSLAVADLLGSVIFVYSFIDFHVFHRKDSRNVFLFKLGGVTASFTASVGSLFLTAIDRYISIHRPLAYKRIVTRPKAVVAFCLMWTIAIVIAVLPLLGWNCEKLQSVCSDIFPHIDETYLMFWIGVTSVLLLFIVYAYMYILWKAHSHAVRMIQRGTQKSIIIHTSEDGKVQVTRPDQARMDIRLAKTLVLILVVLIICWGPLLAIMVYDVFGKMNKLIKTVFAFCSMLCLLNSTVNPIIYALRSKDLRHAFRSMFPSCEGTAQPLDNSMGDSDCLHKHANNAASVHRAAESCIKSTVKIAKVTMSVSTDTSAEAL
# [5] = target: T2, G-protein coupled receptor 35 (Homo sapiens, UniProt Q9HC97); experiment: SAR analysis of Agonists of the GPR35 Receptor using an Image-Based Assay - Set 2. [Related pubchem assays (depositor defined):AID2013, AID2026]; type: functional
# T2 sequence (Q9HC97 whole entry): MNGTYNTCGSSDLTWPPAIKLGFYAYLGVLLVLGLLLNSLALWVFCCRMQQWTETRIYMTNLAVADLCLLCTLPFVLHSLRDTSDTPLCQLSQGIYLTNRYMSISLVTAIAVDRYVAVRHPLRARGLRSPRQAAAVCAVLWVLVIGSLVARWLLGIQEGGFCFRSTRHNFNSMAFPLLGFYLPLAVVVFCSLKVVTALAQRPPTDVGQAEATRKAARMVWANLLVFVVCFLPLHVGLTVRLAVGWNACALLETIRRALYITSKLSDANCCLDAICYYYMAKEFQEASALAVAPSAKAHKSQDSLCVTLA
# [6] = target: T2, G-protein coupled receptor 35; experiment: SAR analysis of Antagonists of the GPR35 Receptor using an Image-Based Assay - Set 3. [Related pubchem assays (depositor defined):AID2013, AID2026]; type: functional
# [7] = target: T3, Protein RecA (Mycobacterium tuberculosis, UniProt P9WHJ3); experiment: Fluorescence Cell-Free Homogeneous Dose Retest to Identify Inhibitors of RecA-Intein Splicing Activity. [Related pubchem assays (depositor defined):AID2097, AID2223, AID489010, AID492950]; type: functional
# T3 sequence (P9WHJ3 whole entry): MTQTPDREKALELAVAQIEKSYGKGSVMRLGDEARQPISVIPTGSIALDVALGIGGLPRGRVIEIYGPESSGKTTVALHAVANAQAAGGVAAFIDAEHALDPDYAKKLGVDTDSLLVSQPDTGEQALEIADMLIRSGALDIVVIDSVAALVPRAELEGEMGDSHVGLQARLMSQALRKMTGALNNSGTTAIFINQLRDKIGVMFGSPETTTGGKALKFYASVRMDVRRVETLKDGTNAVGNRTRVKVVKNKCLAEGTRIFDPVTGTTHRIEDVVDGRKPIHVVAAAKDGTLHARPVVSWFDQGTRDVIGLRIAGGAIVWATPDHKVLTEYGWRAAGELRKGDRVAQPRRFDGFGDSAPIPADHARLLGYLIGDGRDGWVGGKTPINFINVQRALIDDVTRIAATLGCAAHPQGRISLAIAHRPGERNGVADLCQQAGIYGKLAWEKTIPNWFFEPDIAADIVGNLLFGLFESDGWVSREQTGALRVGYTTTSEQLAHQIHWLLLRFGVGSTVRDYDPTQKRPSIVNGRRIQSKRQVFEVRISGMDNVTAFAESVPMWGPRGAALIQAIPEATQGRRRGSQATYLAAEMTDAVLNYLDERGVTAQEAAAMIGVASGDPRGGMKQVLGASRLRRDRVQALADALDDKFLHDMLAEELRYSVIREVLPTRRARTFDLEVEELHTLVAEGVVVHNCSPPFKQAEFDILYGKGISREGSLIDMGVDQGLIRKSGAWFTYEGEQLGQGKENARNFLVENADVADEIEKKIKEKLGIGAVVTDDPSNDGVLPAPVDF
# [8] = target: T4, Cannabinoid receptor 2 (Homo sapiens, UniProt P34972); experiment: SAR analysis of agonists of the Cannabinoid Receptor 2 using an Image-Based Assay. [Related pubchem assays (depositor defined):AID2013, AID2026]; type: functional
# T4 sequence (P34972 whole entry): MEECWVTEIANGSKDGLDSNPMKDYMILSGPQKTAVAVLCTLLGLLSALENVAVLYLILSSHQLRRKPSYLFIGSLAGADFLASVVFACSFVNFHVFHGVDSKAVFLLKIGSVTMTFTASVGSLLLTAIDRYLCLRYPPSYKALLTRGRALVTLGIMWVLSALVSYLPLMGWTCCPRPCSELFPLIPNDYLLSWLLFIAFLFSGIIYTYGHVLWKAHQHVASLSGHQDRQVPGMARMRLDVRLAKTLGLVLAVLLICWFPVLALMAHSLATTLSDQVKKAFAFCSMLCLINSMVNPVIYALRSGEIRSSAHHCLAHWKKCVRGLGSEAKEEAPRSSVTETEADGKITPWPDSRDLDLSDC
# [9] = target: T4, Cannabinoid receptor 2; experiment: SAR analysis of antagonists of the Cannabinoid Receptor 2 using an Image-Based Assay. [Related pubchem assays (depositor defined):AID2013, AID2026]; type: functional
# [10] = target: T5, Replicative DNA helicase DnaB (Mycobacterium tuberculosis, UniProt P9WMR3); experiment: DnaB intein splicing inhibitors, dose response, biochemical, cell-free fluorescence (AID 449749); type: functional
# T5 sequence (P9WMR3 whole entry): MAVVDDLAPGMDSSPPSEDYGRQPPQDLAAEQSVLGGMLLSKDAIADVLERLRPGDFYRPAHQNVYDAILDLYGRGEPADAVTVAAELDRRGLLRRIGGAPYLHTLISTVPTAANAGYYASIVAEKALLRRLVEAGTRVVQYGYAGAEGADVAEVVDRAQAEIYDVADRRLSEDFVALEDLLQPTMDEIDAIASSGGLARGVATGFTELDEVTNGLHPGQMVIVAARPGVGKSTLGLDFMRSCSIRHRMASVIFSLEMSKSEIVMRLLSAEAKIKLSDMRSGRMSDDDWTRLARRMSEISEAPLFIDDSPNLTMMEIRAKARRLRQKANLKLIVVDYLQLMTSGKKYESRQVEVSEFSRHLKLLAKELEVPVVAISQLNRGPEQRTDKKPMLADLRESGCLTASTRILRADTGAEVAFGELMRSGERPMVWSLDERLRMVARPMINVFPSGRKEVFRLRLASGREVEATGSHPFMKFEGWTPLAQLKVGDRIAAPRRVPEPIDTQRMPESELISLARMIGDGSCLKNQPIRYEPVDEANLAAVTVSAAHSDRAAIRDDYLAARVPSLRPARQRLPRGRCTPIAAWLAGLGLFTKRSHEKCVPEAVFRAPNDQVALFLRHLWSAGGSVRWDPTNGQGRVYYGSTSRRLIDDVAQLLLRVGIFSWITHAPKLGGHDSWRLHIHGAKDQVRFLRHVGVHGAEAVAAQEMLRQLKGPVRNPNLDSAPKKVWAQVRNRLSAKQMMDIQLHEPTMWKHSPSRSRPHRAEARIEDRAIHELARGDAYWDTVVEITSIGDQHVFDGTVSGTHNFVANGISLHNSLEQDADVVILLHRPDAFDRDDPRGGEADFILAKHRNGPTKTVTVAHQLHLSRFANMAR
# [11] = target: T1, Cannabinoid receptor 1; experiment: SAR analysis of antagonists of the Cannabinoid Receptor 1 using an Image-Based Assay - Set 2. [Related pubchem assays (depositor defined):AID2013, AID2026]; type: functional
# [12] = target: T6, Hexokinase-1 (Homo sapiens, UniProt P19367); experiment: hexokinase 1 activators, dose response, selectivity assay for HKDC1 activator project, biochemical (AID 504762); type: functional
# T6 sequence (P19367 whole entry): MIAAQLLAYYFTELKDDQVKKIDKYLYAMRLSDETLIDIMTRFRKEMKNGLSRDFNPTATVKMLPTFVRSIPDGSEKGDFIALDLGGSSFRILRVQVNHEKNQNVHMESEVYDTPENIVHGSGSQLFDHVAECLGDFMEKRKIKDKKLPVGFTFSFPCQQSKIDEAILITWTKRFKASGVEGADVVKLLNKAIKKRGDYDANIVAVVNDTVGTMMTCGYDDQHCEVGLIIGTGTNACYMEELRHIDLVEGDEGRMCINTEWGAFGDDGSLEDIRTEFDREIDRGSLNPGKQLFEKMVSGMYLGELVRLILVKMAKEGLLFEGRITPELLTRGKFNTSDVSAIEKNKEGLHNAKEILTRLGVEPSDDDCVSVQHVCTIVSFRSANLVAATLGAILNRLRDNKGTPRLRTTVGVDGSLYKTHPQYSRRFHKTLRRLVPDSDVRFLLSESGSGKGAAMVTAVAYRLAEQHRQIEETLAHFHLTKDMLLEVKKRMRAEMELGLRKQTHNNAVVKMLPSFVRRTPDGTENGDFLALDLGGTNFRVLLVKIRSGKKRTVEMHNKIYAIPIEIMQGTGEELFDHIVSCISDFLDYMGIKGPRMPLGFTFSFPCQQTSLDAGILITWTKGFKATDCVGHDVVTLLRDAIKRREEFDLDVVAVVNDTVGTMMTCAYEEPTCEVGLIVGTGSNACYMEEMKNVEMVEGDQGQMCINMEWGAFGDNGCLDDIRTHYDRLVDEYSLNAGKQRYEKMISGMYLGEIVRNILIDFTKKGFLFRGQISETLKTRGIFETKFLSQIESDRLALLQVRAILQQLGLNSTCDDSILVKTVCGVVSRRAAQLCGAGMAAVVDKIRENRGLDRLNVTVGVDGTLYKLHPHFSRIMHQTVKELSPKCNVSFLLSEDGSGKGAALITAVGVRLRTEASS
# [13] = target: T7, Hexokinase HKDC1 (Homo sapiens, UniProt Q2TB90); experiment: HKDC1 hexokinase activators, dose response, biochemical, W721R variant (AID 504730); type: functional
# T7 sequence (Q2TB90 whole entry): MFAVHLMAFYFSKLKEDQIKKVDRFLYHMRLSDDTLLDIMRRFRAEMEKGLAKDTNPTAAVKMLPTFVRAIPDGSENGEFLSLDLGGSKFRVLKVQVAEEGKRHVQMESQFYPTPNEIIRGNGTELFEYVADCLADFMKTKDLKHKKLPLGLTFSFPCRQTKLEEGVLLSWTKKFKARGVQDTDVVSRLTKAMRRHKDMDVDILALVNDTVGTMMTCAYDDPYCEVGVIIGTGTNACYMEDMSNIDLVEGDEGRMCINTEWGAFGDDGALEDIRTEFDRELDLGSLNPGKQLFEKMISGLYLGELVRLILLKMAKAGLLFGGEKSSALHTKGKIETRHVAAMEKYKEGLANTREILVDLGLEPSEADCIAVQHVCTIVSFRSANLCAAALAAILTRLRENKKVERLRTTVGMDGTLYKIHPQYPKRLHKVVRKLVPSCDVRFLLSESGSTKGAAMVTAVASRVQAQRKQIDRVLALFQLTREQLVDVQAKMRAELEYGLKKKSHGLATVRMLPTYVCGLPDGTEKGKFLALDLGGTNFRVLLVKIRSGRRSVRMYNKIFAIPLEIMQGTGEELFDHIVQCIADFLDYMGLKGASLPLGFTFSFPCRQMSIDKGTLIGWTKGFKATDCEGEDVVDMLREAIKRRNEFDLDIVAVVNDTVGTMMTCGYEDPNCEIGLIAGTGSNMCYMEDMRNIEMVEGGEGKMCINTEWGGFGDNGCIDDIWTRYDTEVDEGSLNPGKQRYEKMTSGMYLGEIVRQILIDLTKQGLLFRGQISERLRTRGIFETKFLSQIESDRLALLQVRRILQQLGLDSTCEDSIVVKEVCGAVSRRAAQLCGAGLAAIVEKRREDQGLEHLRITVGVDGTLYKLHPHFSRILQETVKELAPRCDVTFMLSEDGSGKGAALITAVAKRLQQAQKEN
# [14] = system: Streptococcus; experiment: Group A Streptococcus viability loss, dose response, counter-screen for streptokinase expression inhibitor project, luminescence, BacTiterGlo (AID 1915); type: functional, organism-based;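 also: potency for reduction of bacterial viability or growth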
# [15] = system: Streptococcus sp. 'group A'; experiment: growth inhibition of control SK(-) GAS strain, dose response, counter-screen for streptokinase expression inhibitor project, luminescence, kanamycin, BacTiterGlo, confirmation (AID 1900); type: functional, organism-based
# [16] = target: T8, Streptokinase A (Streptococcus pyogenes serotype M1, UniProt P10520); experiment: S. pyogenes streptokinase expression inhibitors, potency, dose response, plasminogen activation absorbance, OD405 (AID 1914); type: functional, Streptococcus pyogenes M1 GAS;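 also: secreted streptokinase activity via plasminogen activation per viability signal from cell pellet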
# T8 sequence (P10520 whole entry): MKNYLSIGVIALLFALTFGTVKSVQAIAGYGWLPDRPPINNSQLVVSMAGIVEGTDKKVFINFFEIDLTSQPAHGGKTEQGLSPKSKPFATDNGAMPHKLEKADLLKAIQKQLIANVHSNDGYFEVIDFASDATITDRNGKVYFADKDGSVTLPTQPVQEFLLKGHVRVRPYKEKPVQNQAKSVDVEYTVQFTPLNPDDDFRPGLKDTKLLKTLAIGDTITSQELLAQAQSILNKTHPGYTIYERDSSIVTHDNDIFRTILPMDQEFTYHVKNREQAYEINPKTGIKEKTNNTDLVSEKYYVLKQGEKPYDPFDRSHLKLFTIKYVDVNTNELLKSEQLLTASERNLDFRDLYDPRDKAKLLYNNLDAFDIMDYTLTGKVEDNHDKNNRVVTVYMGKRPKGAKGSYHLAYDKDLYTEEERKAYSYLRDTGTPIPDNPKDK
# [17] = growth suppression of beta-catenin-knockout colon cells, dose response, cell-based, HCT116, human colon tumor (AID 1045); type: functional;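 also: HCT116 colon tumor cells with beta catenin knocked out; cells exposed to compound for 60 hours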
# [18] = growth suppression of PTEN-null colon cells, dose response, cell-based, HCT116 PTEN knockout (AID 1047); type: functional;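 also: HCT116 colon tumor cells with PTEN knocked out; cells exposed to compound for 60 hours before readout; potency for loss of cell viability measured by luminescence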
smiles,measurement,setting,value
COc1ccc(C2CC(c3cccs3)=NN2c2ccccc2)cc1 (configuration not stated),EC50,[1],5.45 µM (active)
same,EC50,[2],12.3 µM (not active)
O=C(c1ccco1)N1CCN(c2nc(C3CC3)nc3sc4c(c23)CCCC4)CC1,IC50,[3],1.74 µM (active)
same,EC50,[4],> 32 µM (inactive)
same,EC50,[5],> 32 µM (inactive)
same,IC50,[6],> 32 µM (inactive)
same,EC50,[7],29.6 µM (active)
same,EC50,[8],> 32 µM (inactive)
same,IC50,[9],> 32 µM (inactive)
same,AC50,[10],2.35 µM (active)
same,IC50,[11],> 32 µM (inactive)
Cn1cnnc1SC1c2cccc3cccc(c23)C1NS(=O)(=O)c1ccccc1 (configuration not stated),EC50,[12],24.7 µM (inactive)
same,EC50,[13],46.7 µM (inactive)
CC(C)C[C@H](NC(=O)c1[nH]cnc1C(=O)NCc1ccccc1)C(=O)OCc1ccccc1,EC50,[14],20.5 µM (active)
same,EC50,[15],3.55 µM (active)
same,EC50,[16],> 150 µM (not active)
same,EC50,[1],> 49.8 µM (inactive)
same,EC50,[2],14.4 µM (not active)
Fc1ccc(NC2=NN=C(c3cc(F)ccc3F)CS2)cc1,EC50,[12],28.9 µM (inactive)
same,EC50,[17],20.1 µM (active)
same,EC50,[18],18.5 µM (active)
same,EC50,[13],35.7 µM (inactive)
